The values that follow come from ChEMBL document CHEMBL1201862, “PubChem BioAssay data set” (2004).

What all share (experiment): NCI tumour cell line growth inhibition, 48 h
Assay [1] has as its system A549.
The subject of assay [2] is MDA-MB-231.
Assay [3] deals with BT-549.
Assay [4] relates to HCT-15.
Assay [5] deals with HOP-62.
Assay [6] relates to UACC-62.
Assay [7] deals with OVCAR-4.
Assay [8] deals with SW-620.
The subject of assay [9] is Hs-578T.
The subject of assay [10] is K562.
Assay [11] concerns SF-268.
Assay [12] relates to IGROV-1.
Assay [13] relates to MDA-MB-435.
For assay [14], the system named is HT-29.
Assay [15] concerns Malme-3M.
Assay [16] concerns SK-OV-3.
Assay [17] deals with SF-539.
Assay [18] has as its system CCRF-CEM.
Assay [19] has as its system HL-60.
For assay [20], the system named is HCC 2998.

SMILES strings stand for the structures.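 In this assay, cells in 96-well plates receive the compound at five concentrations for 48 hours. Endpoints are linearly interpolated between the surrounding concentrations. At the GI50, growth is halved.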 Activity calls are given as the source filed them. No stated cut-off is given here; in the data, active = GI50 up to about 1.1 µM and inactive = higher. Non-standard residues stand in square brackets, D forms with d. Residues, ends and D or L forms follow the SMILES beside them. β3hI = CC[CH](C)[CH](N)CC(=O)O

On to `Oc1c(Br)cc(Br)cc1CN(Cc1cc(Br)cc(Br)c1O)C1CCCCC1`, for which the GI50 in [1] is 30.9 µM (inactive); in assay [2], 26.4 µM (inactive); in assay [3], 33.1 µM (inactive); in assay [4] it was 31.9 µM; in assay [5], 24.4 µM (inactive); in [6] it was 31.3 µM (inactive). The GI50 was 46.9 µM (inactive) in [7]; 29.7 µM (inactive) in assay [8]; 17.2 µM (inactive) in assay [9]; 31.6 µM (inactive) in assay [10]; 22 µM (inactive) in [11]; 34.1 µM (inactive) in assay [12]. The GI50 in [13] is 31.3 µM (inactive); in [14], 23.7 µM (inactive); in assay [15], 21.2 µM (inactive); in [16] it was 44.6 µM (inactive).
On to `O=C(O)c1cc(-c2ccc(-c3ccccc3)cc2)nc2cc3ccccc3cc12`, for which the GI50 is 19.8 µM (inactive) in assay [1]; 21.2 µM (inactive) in assay [2]; 35.9 µM (inactive) in assay [3]; 31.2 µM (inactive) in assay [17]; 8.15 µM in assay [4]; 30.3 µM (inactive) in [5]. The GI50 is 25.5 µM (inactive) in [6]; 29.4 µM (inactive) in assay [7]; 40.4 µM (inactive) in assay [8]; 32.3 µM (inactive) in [9]; 14.2 µM (inactive) in assay [10]; 35.2 µM (inactive) in assay [11]. For the same compound, the GI50 in assay [12] is 26.4 µM (inactive); in assay [18], 5.21 µM (inactive); in [13], 72.9 µM (inactive); in assay [14] it was 38 µM (inactive); in [15], 84.5 µM (inactive); in assay [19], 19.1 µM (inactive). Moreover, the GI50 in assay [16] is > 100 µM (inactive).
`CCCSc1ccc2[nH]c(/N=C/c3ccco3)cc2c1`: the GI50 in assay [1] was 77.6 µM (inactive); in assay [3] it was 31 µM (inactive); in assay [17], 12.4 µM (inactive); in [4], 24.3 µM; in assay [5], 6.64 µM (inactive); in [6], 52.8 µM (inactive). The GI50 in assay [7] was 39.4 µM (inactive); in assay [8], 40.2 µM (inactive); in assay [9] it was 29.1 µM (inactive); in [11], 52.6 µM (inactive); in assay [12], 36.5 µM (inactive); in assay [18] it was 27.6 µM (inactive). Moreover, the GI50 is 17.8 µM (inactive) in [13]; 14.3 µM (inactive) in assay [14]; 67.9 µM (inactive) in assay [15]; 29.8 µM (inactive) in assay [19]; 30.5 µM (inactive) in [16].
In the case of `[N-]=[N+]=Nc1c(Cl)c(=O)n(-c2ccccc2)c2ccccc12`, the GI50 was 28.4 µM (inactive) in [1]; 19.9 µM (inactive) in assay [3]; 22.3 µM (inactive) in assay [17]; 20.7 µM in [4]; 24 µM (inactive) in assay [5]; 15.1 µM (inactive) in [6]. Further, the GI50 is 17.4 µM (inactive) in [7]; 14.6 µM (inactive) in [8]; 25.3 µM (inactive) in [9]; 14.8 µM (inactive) in assay [10]; 19.8 µM (inactive) in assay [11]; 15.6 µM (inactive) in assay [12]. For the same compound, the GI50 in assay [18] was 11.9 µM (inactive); in assay [13] it was 19.1 µM (inactive); in assay [14], 23.2 µM (inactive); in assay [20], 21.7 µM (inactive); in assay [15] it was 22.2 µM (inactive); in assay [19] it was 40.3 µM (inactive). For the same compound, in assay [16], the GI50 was 37.2 µM (inactive).
In the case of `CCN(CCCN(CC)C(=O)Nc1c(C)cccc1C)C(=O)Nc1c(C)cccc1C`, the GI50 in [1] was > 100 µM (inactive); in assay [2], > 100 µM (inactive); in assay [3], > 100 µM (inactive); in assay [4] it was above 100 µM; in assay [5], > 100 µM (inactive); in assay [6] it was > 100 µM (inactive). The GI50 in assay [7], in [8], in assay [9], in assay [10], in [11] and in assay [12] was > 100 µM (inactive) in each case. The GI50 in assay [13], in assay [14], in assay [20], in assay [15] and in [16] was > 100 µM (inactive) throughout.
For `COC1OC2COC(C)(C)OC2C2OC(C)(C)OC12` (stereo not drawn), the GI50 in assay [1] was 85.1 µM (inactive); in assay [2], 16 µM (inactive); in [3], > 100 µM (inactive); in assay [4], above 100 µM; in assay [5], 21.7 µM (inactive); in assay [6], 45.1 µM (inactive). In addition, the GI50 in assay [7] is 22.2 µM (inactive); in [8], > 100 µM (inactive); in [9], 17 µM (inactive); in assay [10] it was 33.7 µM (inactive); in assay [11], > 100 µM (inactive); in [12], 18.7 µM (inactive). For the same compound, the GI50 is 19 µM (inactive) in [18]; > 100 µM (inactive) in assay [13]; 60.5 µM (inactive) in [14]; > 100 µM (inactive) in [20]; > 100 µM (inactive) in assay [15]; 78.2 µM (inactive) in [16].
With `O=[N+]([O-])c1ccc(/N=N/c2c(O)ccc3cc(S(=O)(=O)O)cc(S(=O)(=O)O)c23)cc1`, the GI50 is > 100 µM (inactive) in assay [1]; > 100 µM (inactive) in [2]; > 100 µM (inactive) in [3]; above 100 µM in assay [4]; > 100 µM (inactive) in [5]; > 100 µM (inactive) in assay [6]. The GI50 in assay [7], in assay [8], in assay [9], in assay [10], in assay [11] and in [12] was > 100 µM (inactive) in each case. The GI50 in [18], in [13], in assay [14], in assay [15] and in assay [16] was > 100 µM (inactive) each time.
Turning to `COc1ccc(-c2nc(N)c3ncn(C4OC(CO)C(O)C4O)c3n2)cc1` (stereo not drawn), the GI50 is > 100 µM (inactive) in assay [1]; > 100 µM (inactive) in assay [2]; > 100 µM (inactive) in assay [3]; > 100 µM (inactive) in assay [17]; above 100 µM in assay [4]; > 100 µM (inactive) in [5]. Besides, the GI50 in [6], in assay [7], in assay [8], in assay [9], in [10] and in assay [11] was > 100 µM (inactive) throughout. The GI50 in assay [12], in assay [18], in assay [13], in assay [14], in [15] and in [19] was > 100 µM (inactive) each time. The GI50 in assay [16] was > 100 µM (inactive).
For `NCCCNc1ccc2c3c(nn2CCNCCO)-c2c(O)ccc(O)c2C(=O)c13`, the GI50 is 3.84 µM (inactive) in assay [2]; 0.695 µM (active) in [3]; 5.01 µM in assay [4]; 0.362 µM (active) in assay [5]; 0.883 µM (active) in assay [6]; 3.93 µM (inactive) in assay [7]. In addition, the GI50 in assay [8] was 1.15 µM (inactive); in [9] it was 0.787 µM (active); in [11], 1.35 µM (inactive); in [12] it was 2.46 µM (inactive); in assay [13] it was 9.71 µM (inactive); in [14], 3.68 µM (inactive). Also, the GI50 in [15] was 1.51 µM (inactive); in assay [16], 1.28 µM (inactive).
Consider `Cc1c(S(=O)(=O)N/C(=N\O)Nc2ccc(Cl)cc2)sc2ccc(Cl)cc12`, for which the GI50 is 16.4 µM (inactive) in assay [1]; 20.1 µM (inactive) in assay [2]; 17.4 µM (inactive) in [3]; 21.5 µM (inactive) in assay [17]; 16.6 µM in assay [4]; 17.7 µM (inactive) in assay [5]. In addition, the GI50 in assay [6] is 16.1 µM (inactive); in assay [7], 16.9 µM (inactive); in [8], 25.1 µM (inactive); in [9], 18.8 µM (inactive); in assay [10], 31 µM (inactive); in assay [11], 18.1 µM (inactive). In addition, the GI50 is 12.7 µM (inactive) in assay [12]; 38.4 µM (inactive) in assay [18]; 16.3 µM (inactive) in assay [13]; 19.3 µM (inactive) in assay [14]; 18.5 µM (inactive) in assay [15]; 19.3 µM (inactive) in [19]. Further, in assay [16], the GI50 is 15.6 µM (inactive).
`CCC(C)C(CC(=O)N1CCCC1C(=O)NC(C(=O)NC(C(=O)NCC(=O)NC(CC(N)=O)C(=O)NC(C(=O)NC(C(=O)NC(CCCCN)C(N)=O)C(C)CC)C(C)CC)C(C)C)C(C)CC)NC(=O)C(N)C(C)CC` (stereo not drawn) (H-I[β3hI]PIVGNIIK-NH2; configuration not given here): the GI50 in [1] was > 50 µM (inactive); in [2], > 50 µM (inactive); in assay [3], > 50 µM (inactive); in [17] it was > 50 µM (inactive); in [4], above 50 µM; in assay [5], > 50 µM (inactive). Besides, the GI50 in assay [6], in assay [7], in assay [8], in [9], in [11] and in [12] was > 50 µM (inactive) throughout. Besides, the GI50 in assay [18] was 10.5 µM (inactive); in assay [13] it was > 50 µM (inactive); in assay [14], > 50 µM (inactive); in [15], > 50 µM (inactive); in assay [19] it was > 50 µM (inactive); in assay [16] it was > 50 µM (inactive).
